Literature values in patent US20180228146A1, “INSECTICIDAL COMPOSITION AND METHOD” (priority 2014, published 2018).
In brackets after ≈: the same amount, converted by molar mass.

## CCOP(=S)(OCC)Oc1nc(Cl)c(Cl)cc1Cl [chlorpyrifos, O,O-diethyl O-3,5,6-trichloro-2-pyridyl phosphorothioate]
25° C.
  Henry's law constant at 25° C.: 6.76 × 10^−1 Pa m^3 mol^−1
  Vapour pressure at 25° C.: 2.7 mPa
acetone, 25° C.
  Solubility Acetone (25° C.): 6500 g/kg
benzene, 25° C.
  Solubility Benzene (25° C.): 7900 g/kg
Carbon disulfide, 25° C.
  Solubility Carbon disulfide (25° C.): 5900 g/kg
chloroform, 25° C.
  Solubility Chloroform (25° C.): 6300 g/kg
Diethyl ether, 25° C.
  Solubility Diethyl ether (25° C.): 5100 g/kg
hydrolysis, with pH
  Stability: Rate of hydrolysis increases
iso-octanol, 25° C.
  Solubility Iso-octanol (25° C.): 790 g/kg
methanol, 25° C.
  Solubility Methanol (25° C.): 450 g/kg
Phosphate buffer, pH 7, 15° C.
  DT50 (phosphate buffer, pH 7, 15° C.): 100 d
water, 25° C.
  Solubility water (25° C.): 1.4 µg/mL (≈ 3.99 µM)
water, pH 8, 25° C.
  DT50 (water, pH 8, 25° C.): 1.55 d
xylene, 25° C.
  Solubility Xylene (25° C.): 5000 g/kg
